Columns and labels:
[1] = system: JAK1-dependent STAT6 phosphorylation downstream of IL-13 stimulation in BEAS-2B human bronchial epithelial cells; experiment: JAK1 pathway assay in BEAS-2B cells (IL-13-pSTAT6, MSD); type: cell-based; conditions: read-out: IL13-pSTAT6 EC50 (uM)_BEAS-2B
How it was run: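 TF-1 cells starved of GM-CSF overnight, assayed serum-free; BEAS-2B cells in complete growth medium. Lysate pSTAT6 measured by MSD; EC50 derived.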

[2] = target: isolated recombinant JAK1 kinase domain (Homo sapiens (Human), UniProt P23458); experiment: JAK1 enzyme assay (Caliper LabChip, peptide phosphorylation); type: biochemical; conditions: isolated recombinant JAK1 kinase domain, 25 μM ATP
Sequence of isolated recombinant JAK1 kinase domain (P23458 875-1153): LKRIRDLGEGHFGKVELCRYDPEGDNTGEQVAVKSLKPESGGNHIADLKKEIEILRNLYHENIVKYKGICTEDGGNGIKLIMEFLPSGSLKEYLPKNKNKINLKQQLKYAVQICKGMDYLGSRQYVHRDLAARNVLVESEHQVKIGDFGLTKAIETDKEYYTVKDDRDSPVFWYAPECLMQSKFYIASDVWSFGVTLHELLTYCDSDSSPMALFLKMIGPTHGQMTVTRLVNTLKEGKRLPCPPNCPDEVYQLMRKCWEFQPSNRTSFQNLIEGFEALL

[3] = target: isolated recombinant JAK2 kinase domain (Homo sapiens (Human), UniProt O60674); experiment: JAK2 enzyme assay (Caliper LabChip, peptide phosphorylation); type: biochemical; conditions: 25 μM ATP
Sequence of isolated recombinant JAK2 kinase domain (O60674 849-1124): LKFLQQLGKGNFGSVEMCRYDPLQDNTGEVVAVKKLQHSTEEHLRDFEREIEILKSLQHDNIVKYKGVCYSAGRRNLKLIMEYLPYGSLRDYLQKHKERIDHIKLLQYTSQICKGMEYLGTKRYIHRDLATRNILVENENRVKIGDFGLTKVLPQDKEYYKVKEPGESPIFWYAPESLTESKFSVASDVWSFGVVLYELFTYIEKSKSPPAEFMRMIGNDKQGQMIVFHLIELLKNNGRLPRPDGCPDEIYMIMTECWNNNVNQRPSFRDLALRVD

Structure (SMILES) | Ki [2] | Ki [3] | EC50 [1]
O=C1CC(N2CCN(C(=O)Cn3cc(NC(=O)c4cnn5cccnc45)c(-c4cc(Cl)ccc4OC(F)F)n3)CC2)CO1 (stereo not drawn) [Example 392, N-[3-[5-chloro-2-(difluoromethoxy)phenyl]-1-[2-oxo-2-[4-(5-oxooxolan-3-yl)piperazin-1-yl]ethyl]-1H-pyrazol-4-yl]pyrazolo[1,5-a]pyrimidine-3-carboxamide] | 0.4 nM | 0.77 nM | 0.0261 µM
O=C(Nc1cn(CC(=O)N2CCC(N3CCOCC3)CC2)nc1-c1cc(Cl)ccc1OC(F)F)c1cnn2cccnc12 [Example 393, N-[3-[5-chloro-2-(difluoromethoxy)phenyl]-1-[2-[4-(morpholin-4-yl)piperidin-1-yl]-2-oxoethyl]-1H-pyrazol-4-yl]pyrazolo[1,5-a]pyrimidine-3-carboxamide] | 0.38 nM | 0.89 nM | 0.0115 µM
O=C(Nc1cn(C/C=C/CN2CCOCC2)nc1-c1cc(Cl)ccc1OC(F)F)c1cnn2cccnc12 [Example 394, N-[3-[5-chloro-2-(difluoromethoxy)phenyl]-1-[(2E)-4-(morpholin-4-yl)but-2-en-1-yl]-1H-pyrazol-4-yl]pyrazolo[1,5-a]pyrimidine-3-carboxamide] | 0.87 nM | 0.61 nM | 0.0311 µM
CN1CCN(C(=O)C2CCN(C(=O)Cn3cc(NC(=O)c4cnn5cccnc45)c(-c4cc(Cl)ccc4OC(F)F)n3)CC2)CC1 [Example 398, N-(3-(5-chloro-2-(difluoromethoxy)phenyl)-1-(2-(4-(4-methylpiperazine-1-carbonyl)piperidin-1-yl)-2-oxoethyl)-1H-pyrazol-4-yl)pyrazolo[1,5-a]pyrimidine-3-carboxamide] | 0.5 nM | 1.45 nM | 0.0183 µM
O=C(Nc1cn(CCN[C@H]2CCOC2)nc1-c1cc(Cl)ccc1OC(F)F)c1cnn2cccnc12 [Example 399, N-(3-(5-chloro-2-(difluoromethoxy)phenyl)-1-(2-((S)-tetrahydrofuran-3-ylamino)ethyl)-1H-pyrazol-4-yl)pyrazolo[1,5-a]pyrimidine-3-carboxamide] | 0.9 nM | 0.39 nM | 0.0232 µM
CN(C)C(=O)CN(C)C1CCN(C(=O)Cn2cc(NC(=O)c3cnn4cccnc34)c(-c3cc(Cl)ccc3OC(F)F)n2)CC1 [Example 400, N-(3-(5-chloro-2-(difluoromethoxy)phenyl)-1-(2-(4-((2-(dimethylamino)-2-oxoethyl)(methyl)amino)piperidin-1-yl)-2-oxoethyl)-1H-pyrazol-4-yl)pyrazolo[1,5-a]pyrimidine-3-carboxamide] | 0.58 nM | 1.73 nM | 0.0309 µM
O=C(Nc1cn(CCN[C@@H]2CCOC2)nc1-c1cc(Cl)ccc1OC(F)F)c1cnn2cccnc12 [Example 402, N-(3-(5-chloro-2-(difluoromethoxy)phenyl)-1-(2-((R)-tetrahydrofuran-3-ylamino)ethyl)-1H-pyrazol-4-yl)pyrazolo[1,5-a]pyrimidine-3-carboxamide] | 0.83 nM | 0.4 nM | 0.0187 µM
CN(C)CC(O)Cn1cc(NC(=O)c2cnn3cccnc23)c(-c2cc(Cl)ccc2OC(F)F)n1 (stereo not drawn) [Example 404, N-(3-(5-chloro-2-(difluoromethoxy)phenyl)-1-(3-(dimethylamino)-2-hydroxypropyl)-1H-pyrazol-4-yl)pyrazolo[1,5-a]pyrimidine-3-carboxamide] | 1.68 nM | 0.61 nM | 0.0078 µM
O=C(Nc1cn(CC(O)CN2CCCCC2)nc1-c1cc(Cl)ccc1OC(F)F)c1cnn2cccnc12 (stereo not drawn) [Example 405, N-(3-(5-chloro-2-(difluoromethoxy)phenyl)-1-(2-hydroxy-3-(piperidin-1-yl)propyl)-1H-pyrazol-4-yl)pyrazolo[1,5-a]pyrimidine-3-carboxamide] | 1.73 nM | 0.68 nM | 0.0257 µM
N#CCCN1CCN(C(=O)Cn2cc(NC(=O)c3cnn4cccnc34)c(-c3cc(Cl)ccc3OC(F)F)n2)CC1 [Example 406, N-(3-(5-chloro-2-(difluoromethoxy)phenyl)-1-(2-(4-(2-cyanoethyl)piperazin-1-yl)-2-oxoethyl)-1H-pyrazol-4-yl)pyrazolo[1,5-a]pyrimidine-3-carboxamide] | 0.46 nM | 0.99 nM | 0.0333 µM

The next lines start with results.

Ki [2] | Ki [3] | Structure (SMILES) | EC50 [1]
0.36 nM | 0.71 nM | O=C1CN(C2CCN(C(=O)Cn3cc(NC(=O)c4cnn5cccnc45)c(-c4cc(Cl)ccc4OC(F)F)n3)CC2)CCN1 [Example 407, N-(3-(5-chloro-2-(difluoromethoxy)phenyl)-1-(2-oxo-2-(4-(3-oxopiperazin-1-yl)piperidin-1-yl)ethyl)-1H-pyrazol-4-yl)pyrazolo[1,5-a]pyrimidine-3-carboxamide] | 0.172 µM
0.59 nM | 2.29 nM | O=C(Nc1cn(CC(=O)N2CCC(C(=O)N3CCNCC3)CC2)nc1-c1cc(Cl)ccc1OC(F)F)c1cnn2cccnc12 [Example 408, N-(3-(5-chloro-2-(difluoromethoxy)phenyl)-1-(2-oxo-2-(4-(piperazine-1-carbonyl)piperidin-1-yl)ethyl)-1H-pyrazol-4-yl)pyrazolo[1,5-a]pyrimidine-3-carboxamide] | 0.121 µM
0.6 nM | 1.25 nM | CC1(N2CCOCC2)CCN(C(=O)Cn2cc(NC(=O)c3cnn4cccnc34)c(-c3cc(Cl)ccc3OC(F)F)n2)CC1 [Example 410, N-(3-(5-chloro-2-(difluoromethoxy)phenyl)-1-(2-(4-methyl-4-morpholinopiperidin-1-yl)-2-oxoethyl)-1H-pyrazol-4-yl)pyrazolo[1,5-a]pyrimidine-3-carboxamide] | 0.0183 µM
1.7 nM | 0.43 nM | CN(C)CC(=O)Cn1cc(NC(=O)c2cnn3cccnc23)c(-c2cc(Cl)ccc2OC(F)F)n1 [Example 411, N-(3-(5-chloro-2-(difluoromethoxy)phenyl)-1-(3-(dimethylamino)-2-oxopropyl)-1H-pyrazol-4-yl)pyrazolo[1,5-a]pyrimidine-3-carboxamide] | 0.0228 µM
0.25 nM | 0.74 nM | CC(C#N)CN(C)C1CCN(C(=O)Cn2cc(NC(=O)c3cnn4cccnc34)c(-c3cc(Cl)ccc3OC(F)F)n2)CC1 (stereo not drawn) [Example 413, N-(3-(5-chloro-2-(difluoromethoxy)phenyl)-1-(2-(4-((2-cyanopropyl) (methyl)amino)piperidin-1-yl)-2-oxoethyl)-1H-pyrazol-4-yl)pyrazolo[1,5-a]pyrimidine-3-carboxamide] | 0.0209 µM
2.99 nM | 2.09 nM | CN1CCC(=CCn2cc(NC(=O)c3cnn4cccnc34)c(-c3cc(Cl)ccc3OC(F)F)n2)CC1 [Example 415, N-(3-(5-chloro-2-(difluoromethoxy)phenyl)-1-(2-(1-methylpiperidin-4-ylidene)ethyl)-1H-pyrazol-4-yl)pyrazolo[1,5-a]pyrimidine-3-carboxamide] | 0.046 µM
2.91 nM | 1.37 nM | O=C(Nc1cn(CCN2CCNCC2=O)nc1-c1cc(Cl)ccc1OC(F)F)c1cnn2cccnc12 [Example 417, N-(3-(5-chloro-2-(difluoromethoxy)phenyl)-1-(2-(2-oxopiperazin-1-yl)ethyl)-1H-pyrazol-4-yl)pyrazolo[1,5-a]pyrimidine-3-carboxamide] | 0.0934 µM

From US9346815B2, “5-chloro-2-difluoromethoxyphenyl pyrazolopyrimidine compounds, compositions and methods of use thereof” (Genentech, Inc., priority 2014, dated 2016)
